Blank lines part the entries; values can stand above or below the compound they belong to.
How the values were obtained:
[1] = molecular target: T1, Serotonin 3 (5-HT3) receptor (Rattus norvegicus, UniProt P35563+Q9JJ16); assay: Inhibition of [3H]GR-65630 binding to rat cortical membrane serotonin 3 receptor
T1 sequence (P35563 whole entry): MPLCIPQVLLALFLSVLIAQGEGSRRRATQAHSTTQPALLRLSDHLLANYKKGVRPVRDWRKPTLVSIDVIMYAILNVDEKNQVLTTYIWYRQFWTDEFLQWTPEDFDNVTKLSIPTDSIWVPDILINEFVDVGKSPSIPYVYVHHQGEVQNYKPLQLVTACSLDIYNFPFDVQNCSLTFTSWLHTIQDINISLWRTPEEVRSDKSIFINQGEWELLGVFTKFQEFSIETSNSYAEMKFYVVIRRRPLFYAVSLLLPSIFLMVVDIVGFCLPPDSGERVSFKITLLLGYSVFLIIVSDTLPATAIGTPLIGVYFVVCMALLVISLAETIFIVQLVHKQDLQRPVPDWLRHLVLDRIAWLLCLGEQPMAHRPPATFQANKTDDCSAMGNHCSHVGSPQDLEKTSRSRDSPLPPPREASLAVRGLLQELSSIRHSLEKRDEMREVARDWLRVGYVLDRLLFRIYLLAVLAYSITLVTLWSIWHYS
T1 sequence (Q9JJ16 whole entry): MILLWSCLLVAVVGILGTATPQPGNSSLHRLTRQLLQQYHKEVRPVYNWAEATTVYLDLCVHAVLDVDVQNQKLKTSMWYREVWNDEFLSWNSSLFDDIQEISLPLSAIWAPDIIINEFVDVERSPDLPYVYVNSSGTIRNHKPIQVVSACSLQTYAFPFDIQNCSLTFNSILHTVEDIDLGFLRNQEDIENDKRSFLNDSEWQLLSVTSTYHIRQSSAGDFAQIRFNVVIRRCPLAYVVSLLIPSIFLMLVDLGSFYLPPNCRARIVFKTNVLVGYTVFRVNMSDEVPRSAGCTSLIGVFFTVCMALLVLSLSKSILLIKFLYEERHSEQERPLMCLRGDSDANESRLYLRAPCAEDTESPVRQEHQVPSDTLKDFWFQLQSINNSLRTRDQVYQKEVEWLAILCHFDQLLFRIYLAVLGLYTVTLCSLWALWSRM

[2] = molecular target: T2, Serotonin 3 (5-HT3) receptor (Rattus norvegicus) (UniProt P35563+Q9JJ16); assay: Antagonism of 5-HT-induced Von Bezold-Jarisch reflex in rat after intravenous administration of 30 ug/kg of HT (5-hydroxytryptamine 3 receptor antagonism); type: functional, organism-based
[3] = molecular target: T1, Serotonin 3 (5-HT3) receptor; assay: Inhibition of 5-HT (1 ug/mL) induced depolarization in rat vagus nerve (5-hydroxytryptamine 3 receptor antagonism); type: functional, tissue-based
[4] = molecular target: T3, 5-hydroxytryptamine receptor 1A (Homo sapiens, UniProt P08908); assay: Tested for binding affinity for 5-hydroxytryptamine 1A receptor
T3 sequence (P08908 whole entry): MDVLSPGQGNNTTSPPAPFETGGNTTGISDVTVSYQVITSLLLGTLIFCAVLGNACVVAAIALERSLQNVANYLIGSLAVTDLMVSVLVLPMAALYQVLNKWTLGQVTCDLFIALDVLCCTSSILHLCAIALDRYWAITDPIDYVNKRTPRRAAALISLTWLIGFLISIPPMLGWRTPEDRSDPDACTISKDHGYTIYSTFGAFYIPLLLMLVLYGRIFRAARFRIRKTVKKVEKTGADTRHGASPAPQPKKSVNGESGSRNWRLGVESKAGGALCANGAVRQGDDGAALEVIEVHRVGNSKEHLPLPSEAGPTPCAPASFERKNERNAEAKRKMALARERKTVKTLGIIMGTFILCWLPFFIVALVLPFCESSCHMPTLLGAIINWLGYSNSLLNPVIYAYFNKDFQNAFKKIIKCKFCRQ

[5] = molecular target: Serotonin 2 (5-HT2) receptor (Homo sapiens, UniProt P41595+P28223+P28335); assay: Tested for binding affinity for 5-hydroxytryptamine 2 receptor; type: protein assay
D(2) dopamine receptor [6] = molecular target: T4, D(2) dopamine receptor (Homo sapiens, UniProt P14416); assay: Tested for binding affinity for Dopamine D2 receptors
T4 sequence (P14416 whole entry): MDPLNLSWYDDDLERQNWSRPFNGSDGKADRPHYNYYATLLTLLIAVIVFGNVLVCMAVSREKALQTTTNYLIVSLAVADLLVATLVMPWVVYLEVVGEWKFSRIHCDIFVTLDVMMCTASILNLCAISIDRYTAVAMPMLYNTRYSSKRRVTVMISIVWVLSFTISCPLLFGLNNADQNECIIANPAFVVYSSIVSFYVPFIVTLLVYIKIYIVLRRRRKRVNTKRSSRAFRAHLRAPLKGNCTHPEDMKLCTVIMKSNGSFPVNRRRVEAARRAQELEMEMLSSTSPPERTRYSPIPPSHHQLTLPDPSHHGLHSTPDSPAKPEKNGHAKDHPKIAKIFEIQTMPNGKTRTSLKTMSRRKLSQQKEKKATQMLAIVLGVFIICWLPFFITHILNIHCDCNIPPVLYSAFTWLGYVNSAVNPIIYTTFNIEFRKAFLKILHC

[7] = molecular target: T2, Serotonin 3 (5-HT3) receptor (Rattus norvegicus); assay: Ability to antagonise the 5-HT- induced Von Bezold-Jarisch reflex in the rat after intravenous administration of 30 ug/kg of HT (5-hydroxytryptamine 3 receptor); type: functional, organism-based
[8] = molecular target: T1, Serotonin 3 (5-HT3) receptor; assay: Tested for inhibition of binding of [3H]GR-65630 to rat cortical membranes, expressed as IC50; type: cell membranes, Membrane
D(2) dopamine receptor [9] = molecular target: T4, D(2) dopamine receptor; assay: Tested for binding affinity for Dopamine D2 receptor

IC50 [1]: 3.1 nM
ED50 [2]: 0.5 µg/kg
IC50 [3]: 1.4 nM
Structure (SMILES): CN1[C@@H]2CC[C@H]1C[C@@H](OC(=O)c1c[nH]c3ccccc13)C2 [TROPISETRON]

Structure (SMILES): O=C(N[C@H]1CN2CCC1C2)c1cnn2ccccc12 (stereo not given in full)
IC50 [1]: 52 nM
ED50 [2]: 2 µg/kg
IC50 [3]: 124 nM

Structure (SMILES): CN1C2CCC1CC(OC(=O)c1cnn3ccccc13)C2 (stereo not given)
IC50 [4]: > 10000 nM
IC50 [5]: > 10000 nM
IC50 [1]: 28 nM
ED50 [2]: 2 µg/kg
IC50 (D(2) dopamine receptor [6]): > 10000 nM

Structure (SMILES): Cc1nn2ccccc2c1C(=O)NC1CC2CCC(C1)N2C (stereo not given)
IC50 [1]: 26 nM
ED50 [7]: 1.2 µg/kg
IC50 [3]: 42 nM

Structure (SMILES): CN1C2CCCC1CC(NC(=O)c1cnn3ncccc13)C2 (stereo not given)
IC50 [8]: 818 nM
ED50 [7]: > 100 µg/kg

Structure (SMILES): CN1C2CCCC1CC(NC(=O)c1cnn3ccccc13)C2 (stereo not given)
IC50 [1]: 170 nM
ED50 [2]: 5 µg/kg
IC50 [3]: 300 nM

Structure (SMILES): O=C(NC1CN2CCC1CC2)c1cnn2ccccc12 (stereo not given)
IC50 [1]: 75 nM
ED50 [2]: 1 µg/kg
IC50 [3]: 83 nM

Structure (SMILES): O=C(N[C@@H]1CN2CC[C@@H]1C2)c1cnn2ccccc12
IC50 [1]: 72 nM
ED50 [2]: 8 µg/kg
IC50 [3]: 419 nM

Structure (SMILES): Cc1nn2ncccc2c1C(=O)NC1CC2CCCC(C1)N2C (stereo not given)
IC50 [1]: > 300 nM
ED50 [7]: > 50 µg/kg

Structure (SMILES): Cc1nn2ccccc2c1C(=O)NC1CC2CCCC(C1)N2C (stereo not given)
IC50 [1]: 64 nM
ED50 [2]: 6 µg/kg
IC50 [3]: 100 nM

Structure (SMILES): CN1C2CCC1CC(NC(=O)c1cnn3ccccc13)C2 (stereo not given)
IC50 [4]: > 10000 nM
IC50 [5]: > 10000 nM
IC50 [1]: 34 nM
ED50 [2]: 0.74 µg/kg
IC50 [3]: 105 nM
IC50 (D(2) dopamine receptor [9]): > 10000 nM

Structure (SMILES): Cc1nn2ncccc2c1C(=O)NC1CC2CCC(C1)N2C (stereo not given)
IC50 [1]: 122 nM
ED50 [7]: 50 µg/kg

Structure (SMILES): CN1C2CCC1CC(NC(=O)c1cnn3ncccc13)C2 (stereo not given)
IC50 [1]: 429 nM
ED50 [2]: 30 µg/kg
